“Also recorded” adds a separate entry of the source.

This is an account of results in patent US12116614B2, “Methods for determining antibiotic sensitivity” (priority 2020, dated 2024).

Test [1] relates to NRel M. catarrhalis. Conditions: released from dual-species biofilm by anti-rsPilA; cited from earlier work.
In test [2] the test system is NTHI (biofilm-resident, planktonic, anti-rsPilA NRel, anti-IHF NRel). The test can be described thus: Antibiotic sensitivity of biofilm-resident, planktonic or NRel NTHI (2 h antibiotic exposure, CFU plating). It is filed as cell-based, Nontypeable Haemophilus influenzae. Conditions: for sensitivity to killing of anti-IHF NRel compared to planktonic NTHI / sensitivity to killing of anti-rsPilA NRel compared to planktonic NTHI: 2 h antibiotic at concentration killing ~20-25% of planktonic NTHI; for sensitivity to killing of time-matched anti-rsPilA NRel compared to planktonic NTHI: TMP-SMX 0.09 and 0.45 μg per ml, AMC 0.3 and 0.15 μg per ml. Here is the method:
Biofilms were established for 16 hr at 37° C. as described above. For biofilm-resident NTHI: biofilms were washed twice with DPBS and incubated in sBHI supplemented with the indicated antibiotics for at 37° C. 2 h. For planktonic NTHI: NTHI were incubated in sBHI for 3 hr as described above to reach log phase of growth, then diluted to the approximate concentration of either the anti-IHF (2×10^8 CFU/ml) or anti-rsPilA NRels (3×10^8 CFU/ml) to permit comparison between anti-IHF or anti-rsPilA NRels, (see FIG. 1). Planktonic NTHI were incubated with the indicated antibiotics at 37° C. for 2 hr. For NRel NTHI: anti-IHF or anti-rsPilA NRel, generated and collected as described above were incubated at 37° C. for 2 hr with the indicated antibiotics. CFU NTHI were determined by serial dilution and plating. Amoxicillin (Sigma-Aldrich, St. Louis, MO) and clavulanate (U.S. Pharmacopeia, Rockville, MD) were used at a ratio of 2:1. Trimethoprim (Sigma-Aldrich) and sulfamethoxazole (Santa Cruz Biotech, Dallas, TX) were used at a ratio of 1:5. […] All experiments were performed at least three times on separate days with two technical replicates for each treatment and control group.
To avoid excessive manipulation or dilution of NRel NTHI, and to permit direct comparison of equal numbers of planktonic and NRel, the planktonic cell density was adjusted to the same CFU per ml as the NRel population in each experiment as follows: NTHI were incubated statically to mid log phase growth then diluted to either 3×10^8 CFU/ml for comparison with anti-rsPilA NRel collected at 6 h, or to 2×10^8 CFU/ml for comparison with anti-IHF NRel collected at 15 min (see FIG. 1). Applicant then determined the concentrations of amoxicillin (Sigma-Aldrich, St. Louis, MO) and clavulanate (U.S. Pharmacopeia, Rockville, MD), or of trimethoprim (Sigma-Aldrich) and sulfamethoxazole (Santa Cruz Biotech, Dallas, TX) that killed approximately 25% of planktonic NTHI at each density. The same antibiotic concentrations were used for the anti-IHF or anti-rsPilA NRel, the density-matched (same CFU/ml) planktonic NTHI, and the adherent biofilm for each relevant experiment. […] Applicant then assessed killing of anti-IHF or anti-rsPilA NRel by concentrations of amoxicillin plus clavulanic acid (“augmentin”, AMC) or trimethoprim plus sulfamethoxazole (TMP-SMX) that killed 25% of the planktonic NTHI at the same density.
Anti-rsPilA or anti-IHF NRel were collected and sonicated as described above. After sonication for 2 min in a water bath sonicator to break up any NTHI aggregates, NRel or planktonic NTHI were incubated with the indicated antibiotics at 37° C. for 2 h, then serially diluted and plated on chocolate agar to quantify viable NTHI. To assay biofilm-resident NTHI, biofilms were established for 16 h at 37° C. as described above, washed twice with DPBS and incubated in sBHI supplemented with the indicated antibiotics at 37° C. After 2 h, biofilm-resident NTHI were collected by forceful pipetting, sonicated for 2 min and enumerated as described above. All experiments were performed at least three times on separate days with two or three technical replicates for each treatment and control group.

Test [3] concerns NRel versus Non-Associated NTHI. The text has this:
Applicant tested for this phenotype for either Amox/Clav or Trimethoprim/Sulfamethoxazole to determine when this sensitivity first appears and how long this NRel phenotype lasts (i.e. what is the window of opportunity in which to treat a patient with a biofilm disease?). Here, NRel are compared not to planktonic bacteria (due to their artificiality) but rather to “Non-Associated” bacteria which are those found in the supernatant above the biofilm but not associated with biofilm residence as this population represents those bacteria that naturally come off the biofilm or were never a part of the biofilm which is a normal aspect of the preferred bacterial lifestyle in nature. […] Box Legend: NRelAC—relative killing by Amox/Clav; NRel TS—relative killing by Trimethoprim/Sulfamethoxazole; open symbols are the same but for the non-associated populations of bacteria as now described in this legend. Data was generated with a murine anti-tip chimer antibody.
Box Legend: NRelAC—relative killing by Amox/Clav; NRel TS—relative killing by Trimethoprim/Sulfamethoxazole; open symbols are the same but for the non-associated populations of bacteria as now described in this legend. Data was generated with a murine anti-tip chimer antibody.

Test [4] relates to NRel NTHI. Conditions: released from dual-species biofilm by anti-rsPilA; cited from earlier work.
[5] abbreviates: after exposure to antibodies against rsPilA.

For the compound `CC[C@H]1OC(=O)[C@H](C)[C@@H](O[C@H]2C[C@@](C)(OC)[C@@H](O)[C@H](C)O2)[C@H](C)[C@@H](O[C@@H]2O[C@H](C)C[C@H](N(C)C)[C@H]2O)[C@](C)(OC)C[C@@H](C)C(=O)[C@H](C)[C@@H](O)[C@]1(C)O` [clarithromycin], the “susceptibility of NRel M. catarrhalis compared to those from growth on agar” value in test [1] is on record as “more susceptible”.

With trimethoprim and sulfamethoxazole [T/S], the “sensitivity of biofilm-resident NTHI to killing” value in test [2] (16 h biofilm, 2 h antibiotic) is “minimal sensitivity”. In test [2] (NRel after 15 min anti-IHF, 2 h antibiotic), the “sensitivity to killing of anti-IHF NRel compared to biofilm-resident NTHI” value is listed as “significantly more sensitive”. Besides, the “sensitivity to killing of anti-IHF NRel compared to planktonic NTHI” value in test [2] (NRel after 15 min anti-IHF) is recorded as “only equally as sensitive”; in test [2] (NRel after 15 min anti-IHF, listed as TMP-SMX) it was “only equally as sensitive”. In addition, the “sensitivity to killing of anti-rsPilA NRel compared to biofilm-resident NTHI” value in test [2] (NRel after 6 h anti-rsPilA, 2 h antibiotic) is recorded as “significantly more sensitive”. Further, the “sensitivity to killing of anti-rsPilA NRel compared to planktonic NTHI” value is recorded as “significantly more sensitive; also recorded: significantly greater” in test [2] (NRel after 6 h anti-rsPilA) and “significantly greater” in test [2] (NRel after 6 h anti-rsPilA, listed as TMP-SMX). The “sensitivity to killing of time-matched anti-rsPilA NRel compared to planktonic NTHI” value in test [2] (NRel collected after 2 h, listed as TMP-SMX) is “significantly more susceptible”; in test [2] (NRel collected after 2 h, listed as TMP/SMX) it was “significantly more sensitive”. In addition, the “sensitivity to killing of time-matched anti-IHF NRel compared to planktonic NTHI” value in test [2] (NRel collected after 2 h, TMP-SMX 0.94 and 4.7 μg/ml, AMC 2.5 and 1.25 μg/ml) was “only equally as sensitive; also recorded: equally susceptible”. Also, the “sensitivity of anti-DNABII NRel to killing compared to Non-Associated bacteria” value in test [3] (NRel induced with murine anti-tip chimer antibody) is on record as “as but not more sensitive”. For the same compound, in test [3] (NTHI released by antibody against rsPilA), the “sensitivity of anti-rsPilA NRel to being killed compared to Non-Associated bacteria” value was “significantly greater sensitivity”. Further, in test [3] (setting [5]), the “time at which greater sensitivity of anti-rsPilA NRel appears” value is “approximately one”. In addition, in test [3] (setting [5]), the “time at which the sensitive phenotype of anti-rsPilA NRel remains” value is at least 6 h. In test [4], the “susceptibility of NRel NTHI compared to those from growth on agar” value is reported as “more susceptible”.
